Data set [1] has as its target T1, N-formyl peptide receptor 2 (Homo sapiens, UniProt P25090).
T1 sequence (P25090 whole entry): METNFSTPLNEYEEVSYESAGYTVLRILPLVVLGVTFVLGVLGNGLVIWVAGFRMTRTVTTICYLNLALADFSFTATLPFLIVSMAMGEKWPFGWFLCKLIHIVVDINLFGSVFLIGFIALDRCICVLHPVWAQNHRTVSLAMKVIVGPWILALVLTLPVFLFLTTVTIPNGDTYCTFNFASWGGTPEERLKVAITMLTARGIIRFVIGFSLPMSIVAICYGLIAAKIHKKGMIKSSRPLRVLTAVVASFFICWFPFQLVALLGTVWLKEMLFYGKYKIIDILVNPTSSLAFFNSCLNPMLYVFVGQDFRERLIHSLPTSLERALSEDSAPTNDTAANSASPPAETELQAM
Nature of the data set: Agonist activity at human FPR2 expressed in CHO cells assessed as forskolin -induced cAMP level incubated for 30 mins in presence of IBMX by HTRF HiRange cAMP assay. It is filed as functional, cell-based. On the technique in general: Changes in cAMP serve as a functional read-out for many G protein-coupled receptors.

Data set [2] has as its target Cytochrome P450 2C9 (Homo sapiens, UniProt P11712). Nature of the data set: Inhibition of CYP2C9 (unknown origin). It is filed as ADME.
Data set [3] can be described thus: Permeability across apical to basal side in human Caco-2 cells. It is filed as ADME, cell-based. As to conditions: read-out: permeability.
Data set [4] concerns the target Cytochrome P450 3A4 (Homo sapiens, UniProt P08684). Nature of the data set: Inhibition of CYP3A4 (unknown origin). It is filed as ADME.
Data set [5] can be described thus: Protein binding in human plasma assessed as free fraction. It is filed as ADME, cell-free.
Data set [6] is described as follows: Permeability across basal to apical side in human Caco-2 cells. It is filed as ADME, cell-based. To be noted: read-out: permeability.
Data set [7] addresses T2, Cytochrome P450 1A2 (Homo sapiens, UniProt P05177).
T2 sequence (P05177 whole entry): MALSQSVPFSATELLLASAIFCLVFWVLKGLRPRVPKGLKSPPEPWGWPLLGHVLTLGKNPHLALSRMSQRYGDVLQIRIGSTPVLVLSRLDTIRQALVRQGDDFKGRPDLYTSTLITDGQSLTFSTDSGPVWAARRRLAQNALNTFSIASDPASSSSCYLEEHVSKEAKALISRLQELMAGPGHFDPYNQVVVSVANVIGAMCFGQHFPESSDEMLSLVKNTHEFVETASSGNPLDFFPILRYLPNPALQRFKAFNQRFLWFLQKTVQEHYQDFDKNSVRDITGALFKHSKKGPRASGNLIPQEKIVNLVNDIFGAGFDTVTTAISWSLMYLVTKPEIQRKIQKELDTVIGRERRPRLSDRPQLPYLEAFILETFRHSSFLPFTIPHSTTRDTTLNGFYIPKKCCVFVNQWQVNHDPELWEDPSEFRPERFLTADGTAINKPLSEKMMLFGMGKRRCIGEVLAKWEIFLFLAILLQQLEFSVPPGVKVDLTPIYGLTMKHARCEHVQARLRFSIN
Nature of the data set: Inhibition of CYP1A2 (unknown origin). In kind it is ADME.

The test system of data set [8] is Rattus norvegicus. Nature of the data set: Anti-inflammatory activity in LPS-treated rat model assessed as increase in IL-10 level at 10 mg/kg measured after 2 hrs relative to control. It is filed as functional.
The target in data set [9] is Cytochrome P450 2C19 (Homo sapiens, UniProt P33261). Nature of the data set: Inhibition of CYP2C19 (unknown origin). In kind it is ADME.
Cytochrome P450 2C19, sequence (P33261 whole entry): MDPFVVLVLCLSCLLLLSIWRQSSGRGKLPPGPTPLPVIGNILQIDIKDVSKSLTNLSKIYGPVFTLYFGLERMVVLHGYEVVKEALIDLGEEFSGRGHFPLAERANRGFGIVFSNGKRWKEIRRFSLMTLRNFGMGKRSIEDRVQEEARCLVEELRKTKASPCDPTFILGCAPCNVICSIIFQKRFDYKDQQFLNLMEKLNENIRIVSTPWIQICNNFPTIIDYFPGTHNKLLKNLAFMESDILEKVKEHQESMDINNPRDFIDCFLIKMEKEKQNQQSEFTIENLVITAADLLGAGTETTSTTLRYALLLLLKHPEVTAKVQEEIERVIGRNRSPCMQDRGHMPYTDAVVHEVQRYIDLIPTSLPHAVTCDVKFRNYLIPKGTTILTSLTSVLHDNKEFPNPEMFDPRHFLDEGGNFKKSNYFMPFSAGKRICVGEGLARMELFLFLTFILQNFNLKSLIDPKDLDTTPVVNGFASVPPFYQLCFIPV
Data set [10] can be described thus: AUC (total) in rat at 3 mg/kg, po. It is filed as ADME, organism-based. As to conditions: in vivo.
Data set [11] is described as follows: Protein binding in rat plasma assessed as free fraction. In kind it is ADME, cell-free.
Data set [12] in a line: Cmax in rat at 3 mg/kg, po. To be noted: in vivo. In kind it is ADME, organism-based.
Data set [13] is described as follows: Agonist activity at rat FPR2 by cAMP assay.
Data set [14] addresses Cytochrome P450 2D6 (Homo sapiens, UniProt P10635). Nature of the data set: Inhibition of CYP2D6 (unknown origin). It is filed as ADME.
A short description of data set [15]: Drug concentration in plasma of LPS-treated rat model at 10 mg/kg measured after 2 hrs. In kind it is ADME, organism-based.

Data on eleven compounds can be found in ChEMBL document CHEMBL5608253, “Discovery and Optimization of Aryl Piperidinone Ureas as Selective Formyl Peptide Receptor 2 Agonists” (ACS Med Chem Lett, 2024).

Cytochrome P450 3A4, sequence (P08684 whole entry): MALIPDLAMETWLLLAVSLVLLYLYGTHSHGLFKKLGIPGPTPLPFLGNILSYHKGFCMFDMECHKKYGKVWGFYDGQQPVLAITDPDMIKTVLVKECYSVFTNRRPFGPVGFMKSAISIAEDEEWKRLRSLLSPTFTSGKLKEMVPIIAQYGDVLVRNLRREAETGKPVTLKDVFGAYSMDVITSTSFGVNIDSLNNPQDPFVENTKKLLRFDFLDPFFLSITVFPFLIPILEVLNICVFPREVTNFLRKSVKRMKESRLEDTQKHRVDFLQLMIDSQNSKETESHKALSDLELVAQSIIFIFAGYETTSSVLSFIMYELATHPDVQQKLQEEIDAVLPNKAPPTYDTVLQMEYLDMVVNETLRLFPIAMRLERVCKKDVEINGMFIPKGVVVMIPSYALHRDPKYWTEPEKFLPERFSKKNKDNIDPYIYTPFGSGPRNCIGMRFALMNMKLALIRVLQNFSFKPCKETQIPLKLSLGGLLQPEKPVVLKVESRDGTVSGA
Cytochrome P450 2C9, sequence (P11712 whole entry): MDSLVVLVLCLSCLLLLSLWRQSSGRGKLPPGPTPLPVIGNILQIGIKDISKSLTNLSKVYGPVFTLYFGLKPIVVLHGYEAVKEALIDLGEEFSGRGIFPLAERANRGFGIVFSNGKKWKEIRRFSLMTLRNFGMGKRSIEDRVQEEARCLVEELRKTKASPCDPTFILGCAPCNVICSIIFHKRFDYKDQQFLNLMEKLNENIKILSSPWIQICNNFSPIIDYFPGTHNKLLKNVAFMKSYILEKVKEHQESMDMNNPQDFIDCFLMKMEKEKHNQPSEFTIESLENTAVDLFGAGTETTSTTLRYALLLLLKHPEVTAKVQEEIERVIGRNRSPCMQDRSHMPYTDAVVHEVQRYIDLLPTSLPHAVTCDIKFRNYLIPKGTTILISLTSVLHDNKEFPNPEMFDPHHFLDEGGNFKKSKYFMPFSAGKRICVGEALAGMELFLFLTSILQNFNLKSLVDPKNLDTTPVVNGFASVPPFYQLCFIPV
Cytochrome P450 2D6, sequence (P10635 whole entry): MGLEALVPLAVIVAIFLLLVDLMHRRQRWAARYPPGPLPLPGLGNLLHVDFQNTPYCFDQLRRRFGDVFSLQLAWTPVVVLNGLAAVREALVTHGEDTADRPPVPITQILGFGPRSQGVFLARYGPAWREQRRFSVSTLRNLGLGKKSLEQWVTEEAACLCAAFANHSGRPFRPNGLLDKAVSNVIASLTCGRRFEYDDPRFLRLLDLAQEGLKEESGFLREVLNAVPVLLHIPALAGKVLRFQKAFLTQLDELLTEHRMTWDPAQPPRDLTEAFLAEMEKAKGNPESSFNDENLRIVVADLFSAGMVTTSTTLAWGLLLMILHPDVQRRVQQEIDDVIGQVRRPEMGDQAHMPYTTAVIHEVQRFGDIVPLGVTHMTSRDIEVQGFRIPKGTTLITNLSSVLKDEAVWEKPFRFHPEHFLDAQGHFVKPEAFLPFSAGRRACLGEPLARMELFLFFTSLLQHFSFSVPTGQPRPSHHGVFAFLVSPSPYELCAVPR

By EC50 is commonly meant the concentration at which the effect is half-maximal. For the compound `COc1ccc(NC(=O)N[C@@H]2CCCN(c3ccc(-c4ccccc4NS(C)(=O)=O)cc3)C2=O)cc1`, the concentration giving a half-maximal response (EC50) in [1] is 0.3 nM.

A word on the fraction unbound: it is the share of the substance not bound to proteins or other matrix. A word on the AUC: it is concentration integrated over time. A high value points to high exposure. Broadly, the Cmax is the peak of the concentration-time curve. For the compound `CS(=O)(=O)Nc1ccccc1-c1ccc(N2CCC[C@@H](NC(=O)Nc3ccc(C(F)(F)F)cc3)C2=O)cc1`, the INH in [2], in data set [4], in data set [7], in data set [9] and in [14] was over 10 µM in each case. The results for the EC50 in [1] and in data set [13] were 0.14 nM and 0.5 nM, respectively. Also, the Papp A→B in data set [3] was under 1.5 ×10⁻⁶ cm/s. Besides, the free fraction (fraction unbound) in [5] and in [11] was 0.01 each time. In addition, in [6], the Papp B→A was determined as 32.5 ×10⁻⁶ cm/s. The Activity in data set [8] is listed as 183%. Besides, the area under the curve (AUC) in data set [10] is 0.45 µM·h. The maximum concentration (Cmax) in data set [12] turned out to be 110 nM. The compound also came in with a concentration at 2 h in data set [15] of 610 nM.

Turning to `COc1cnc(NC(=O)N[C@@H]2CCCN(c3ccc(-c4ccccc4NS(C)(=O)=O)cc3)C2=O)c(F)c1`, the INH in data set [2], in data set [4], in data set [7], in [9] and in [14] was over 10 µM each time. Besides, the Papp A→B in [3] stood at 11 ×10⁻⁶ cm/s. Further, the fraction unbound in [5] was determined as 0.12; in data set [11], 0.08. For the same compound, the Papp B→A in [6] came out at 44 ×10⁻⁶ cm/s. In addition, in [10], the AUC was 1.7 µM·h. In [12], the highest concentration (Cmax) is 830 nM.

Turning to `CS(=O)(=O)Nc1ccccc1-c1ccc(N2CCC[C@@H](NC(=O)Nc3ccc(Cl)cc3)C2=O)cc1`, the INH in data set [2], in data set [4], in [7], in data set [9] and in data set [14] was over 10 µM throughout. Further, the EC50 came out at 0.15 nM in data set [1] and 0.4 nM in [13]. Moreover, in [3], the Papp A→B is under 1.5 ×10⁻⁶ cm/s. In addition, the fraction unbound is 0.02 in data set [5] and 0.01 in [11]. Further, the Papp B→A in [6] is 41.8 ×10⁻⁶ cm/s. Moreover, the Activity in data set [8] was determined as 140%. Further, in [10], the AUC came out at 1.13 µM·h. Also, the Cmax in data set [12] was determined as 300 nM. The same compound returned a concentration at 2 h in data set [15] of 490 nM.

As for `CS(=N)(=O)c1ccccc1-c1ccc(N2CCC[C@@H](NC(=O)Nc3ccc(C(F)(F)F)cc3)C2=O)cc1` (stereo in doubt; 9), the EC50 in data set [1] came out at 1.6 nM.

In the case of `CS(=O)(=O)Nc1ccccc1-c1ccc(N2CCC[C@@H](NC(=O)Nc3ccc(Cl)cc3F)C2=O)cc1`, the INH in [2], in data set [4], in data set [7], in data set [9] and in data set [14] was over 10 µM each time. The EC50 in data set [1] turned out to be 0.2 nM; in [13], 0.6 nM. Moreover, the Papp A→B in [3] worked out at 4.4 ×10⁻⁶ cm/s. Besides, the fraction unbound in data set [5] and in [11] was 0.03 each time. For the same compound, the Papp B→A in data set [6] was determined as 29.1 ×10⁻⁶ cm/s. Also, the Activity in data set [8] turned out to be 128%. In data set [10], this compound returned an area under the curve (AUC) of 2.7 µM·h. This compound gave a Cmax in data set [12] of 610 nM. In data set [15], this compound displayed a concentration at 2 h of 1700 nM.

For `CS(=O)(=O)Nc1ccccc1-c1ccc(N2CCC[C@@H](NC(=O)Nc3ccc(C(F)(F)F)nc3)C2=O)cc1`, the EC50 in data set [1] came out at 10 nM.

On to `CS(=N)(=O)c1ccccc1-c1ccc(N2CCC[C@@H](NC(=O)Nc3ccc(C(F)(F)F)cc3)C2=O)cc1` (stereo in doubt; 10), for which, in [1], the EC50 stood at 9 nM.

For the compound `NC(=O)c1ccccc1-c1ccc(N2CCC[C@@H](NC(=O)Nc3ccc(C(F)(F)F)cc3)C2=O)cc1`, the EC50 in data set [1] amounted to 2.8 nM.

Regarding `CS(=O)(=O)Nc1ccccc1-c1ccc(N2CCC[C@@H](NC(=O)Nc3ccc(C(F)(F)F)cc3F)C2=O)cc1`, the EC50 in [1] was determined as 0.6 nM.

In the case of `CS(=O)(=O)Nc1ccccc1-c1ccc(N2CCC[C@@H](NC(=O)Nc3ccc(C(F)(F)F)cn3)C2=O)cc1`, the EC50 in [1] worked out at 4.5 nM.
